What was measured:
[1] = test system: microorganisms; experiment: Peptide activities: targeting/binding, antimicrobial, growth or phenotype altering (Tables 7, 8); assay type: cell-based; conditions: peptides having multiple activities
Source text: In certain embodiments, peptides described herein can have multiple activities. Thus for example, a peptide can have both binding/targeting activity and antimicrobial activity. Such peptides can be used, e.g., in a chimeric construct, for any or all of these properties. Thus, for example, a peptide designated “B” in Table 8 can be used as a targeting peptide. If it is also designated G or M it can also be used for antimicrobial activity.
Table 8. Peptides Having Multiple Activities. B: Targeting/Binding Activity; M: Antimicrobial Activity; G: GROWTH or Phenotype Altering.

[2] = test system: microorganisms; experiment: Morphology, biofilm and growth disrupting peptides (Table 5); assay type: cell-based; set-up: key: A: Peptide aggregates; B: Less hyphal formation; Clumps; Diffuse clumps and small polyps; F: Diffuse growth; H: Thin; I: Growth inhibition; Microcolony formation; Rippled; Small polyps; Thick; W: Halo formation on top, microlonies on bottom
Source text: In certain embodiments peptides that induce alterations in phenotype or other biological activities can also be used as antimicrobial effector moieties.

[3] = test system: microorganisms; experiment: Targeting peptide binding to target microorganisms (Tables 3, 10, 12); conditions: microorganism(s) the targeting peptide binds; binding in aqueous buffers varied with peptide solubility, preferably 1x PBS

| Substance | Organism, effect ([2]; MRSA) | Organism, effect ([2]; S. pneumoniae) | Target(s) [3] | other results |
| --- | --- | --- | --- | --- |
| ALCSVIKAIELGIINVHLQ [PF-366] | – | – | – | Activities [1]: G B; Organism, effect: C. jejuni [2]: C. jejuni (D); Organism, effect: E. coli [2]: E. coli (C); Organism, effect: E. faecalis ([2]; E. faecalis): E. faecalis (C); Organism, effect: MRSA ([2]; MRSA): MRSA (D); Organism, effect: P. aeruginosa ([2]; P. aeruginosa): P. aeruginosa (A); Organism, effect: S. epidermidis ([2]; S. epidermidis): S. epidermidis (R); Organism, effect: S. pneumoniae ([2]; S. pneumoniae): S. pneumoniae (C) |
| EILNNNQVIKELTMKYKTQFESNLGGWTARARR [PF-580] | MRSA (M) | S. pneumoniae (C) | – | Activities [1]: G B; Organism, effect ([2]; M. luteus): M. luteus (C); Organism, effect ([2]; S. epidermidis): S. epidermidis (M) |
| MGIIAGIIKVIKSLIEQFTGK [PF-007] | – | – | – | Activities [1]: G B; Organism, effect: E. coli [2]: E. coli (A); Organism, effect: E. faecalis ([2]; E. faecalis): E. faecalis (A); Organism, effect: M. luteus ([2]; M. luteus): M. luteus (A); Organism, effect: MRSA ([2]; MRSA): MRSA (R); Organism, effect: S. epidermidis ([2]; S. epidermidis): S. epidermidis (A) |
| MIHLTKQNTMEALHFIKQFYDMFFILNFNV [PF-040] | – | – | – | Activities [1]: G B; Organism, effect: B. subtilis ([2]; B. subtilis): B. subtilis (D); Organism, effect: C. jeikeium ([2]; C. jeikeium): C. jeikeium (D); Organism, effect: C. jejuni [2]: C. jejuni (D); Organism, effect: E. coli [2]: E. coli (C); Organism, effect: M. luteus ([2]; M. luteus): M. luteus (D); Organism, effect: MRSA ([2]; MRSA): MRSA (D); Organism, effect: P. mirabilis ([2]; P. mirabilis): P. mirabilis (C); Organism, effect: S. epidermidis ([2]; S. epidermidis): S. epidermidis (D); Organism, effect: S. mutans ([2]; S. mutans, class symbol): S. mutans (F); Organism, effect: S. pneumoniae ([2]; S. pneumoniae): S. pneumoniae (D) |
| PF-001: peptide having multiple activities (MNNWIIVAQLSVTVINEIIDIMKEKQKGGK; Peptide with targeting and/or antimicrobial activity) | – | – | – | Activities [1]: G B; Organism, effect: C. jeikeium ([2]; C. jeikeium): C. jeikeium (D); Organism, effect: M. luteus ([2]; M. luteus): M. luteus (C); Organism, effect: MRSA ([2]; MRSA): MRSA (R); Organism, effect: S. epidermidis ([2]; S. epidermidis): S. epidermidis (C) |
| PF-004: peptide having multiple activities (ARLSKAIIIAVIVVYHLDVRGLF; Peptide with targeting and/or antimicrobial activity) | – | – | – | Activities [1]: G B; Organism, effect: C. jeikeium ([2]; C. jeikeium): C. jeikeium (A); Organism, effect: M. luteus ([2]; M. luteus): M. luteus (A); Organism, effect: MRSA ([2]; MRSA): MRSA (R); Organism, effect: S. epidermidis ([2]; S. epidermidis): S. epidermidis (A) |
| PF-663 (chain 1 ATLIPRKA; chain 2 ATLIPRKA; Peptide with targeting and/or antimicrobial activity) | – | S. pneumoniae (A) | Mycobacteria spp | – |
| PF-665 (chain 1 VLRVATAVGEVPTGL; chain 2 VLRVATAVGEVPTGL; Peptide with targeting and/or antimicrobial activity) | – | S. pneumoniae (H) | Mycobacteria spp | – |
| PF-666 (chain 1 PNRRSRPR; chain 2 PNRRSRPR; Peptide with targeting and/or antimicrobial activity) | – | S. pneumoniae (A) | Mycobacteria spp | – |
| PF-667 (chain 1 PAHQRLRIDQRLVADRDMVQDYES; chain 2 PAHQRLRIDQRLVADRDMVQDYES; Peptide with targeting and/or antimicrobial activity) | MRSA (R) | S. pneumoniae (R) | Mycobacteria spp | Organism, effect ([2]; E. faecalis): E. faecalis (R); Organism, effect ([2]; S. epidermidis): S. epidermidis (R) |
| PF-668 (chain 1 TNAESMALAFRGRVHMSVNIAGLT; chain 2 TNAESMALAFRGRVHMSVNIAGLT; Peptide with targeting and/or antimicrobial activity) | MRSA (R) | S. pneumoniae (M) | Mycobacteria spp | Organism, effect ([2]; B. subtilis): B. subtilis (A); Organism, effect ([2]; C. albicans): C. albicans (A); Organism, effect ([2]; C. jeikeium): C. jeikeium (D); Organism, effect ([2]; E. faecalis): E. faecalis (D); Organism, effect ([2]; S. epidermidis): S. epidermidis (M) |
| PF-675 (EIIPISPTRRCEMHTMSSAEYRGL; Peptide with targeting and/or antimicrobial activity) | – | S. pneumoniae (C) | Mycobacteria spp | Organism, effect ([2]; E. faecalis): E. faecalis (R) |
| PF-677 (TCRGAGMH; Peptide with targeting and/or antimicrobial activity) | MRSA (D) | S. pneumoniae (D) | Mycobacteria spp | Organism, effect ([2]; E. faecalis): E. faecalis (R); Organism, effect ([2]; S. epidermidis): S. epidermidis (R) |
| PF-680 (ADPHPTTGI; Peptide with targeting and/or antimicrobial activity) | MRSA (R) | – | Mycobacteria spp | – |
| PF-682 (RRGKSEQGLSRR; Peptide with targeting and/or antimicrobial activity) | – | S. pneumoniae (A) | Mycobacteria spp | – |
| PF-683 (LWPVA; Peptide with targeting and/or antimicrobial activity) | MRSA (R) | S. pneumoniae (H) | Mycobacteria spp | Organism, effect ([2]; S. epidermidis): S. epidermidis (R) |
| PF-684 (RKLSLASGFALWRRSLV; Peptide with targeting and/or antimicrobial activity) | – | S. pneumoniae (C) | Mycobacteria spp | Organism, effect ([2]; C. albicans): C. albicans (B); Organism, effect ([2]; E. faecalis): E. faecalis (A) |

| Substance | Organism, effect ([2]; MRSA) | Organism, effect ([2]; S. pneumoniae) | Target(s) [3] | other results |
| --- | --- | --- | --- | --- |
| PF-685 (PTLWLACL; Peptide with targeting and/or antimicrobial activity) | MRSA (M) | S. pneumoniae (M) | Mycobacteria spp | Organism, effect ([2]; C. jeikeium): C. jeikeium (R); Organism, effect ([2]; E. faecalis): E. faecalis (R); Organism, effect ([2]; S. epidermidis): S. epidermidis (M) |
| PF-687 (AKRVLSLAVAPHRRQPVQGT; Peptide with targeting and/or antimicrobial activity) | – | S. pneumoniae (A) | Mycobacteria spp | – |
| PF-688 (ARNHAVIPAG; Peptide with targeting and/or antimicrobial activity) | – | S. pneumoniae (A) | Mycobacteria spp | – |
| PF-690 (MIPLAGDPVSSHRTVEFGVLGTYLVSGGSL; Peptide with targeting and/or antimicrobial activity) | MRSA (R) | S. pneumoniae (M) | Mycobacteria spp | Organism, effect ([2]; E. faecalis): E. faecalis (R); Organism, effect ([2]; S. epidermidis): S. epidermidis (R) |
| PF-691 (HRTVEFGVLGTYLVSGGSL; Peptide with targeting and/or antimicrobial activity) | – | S. pneumoniae (R) | Mycobacteria spp | – |
| PF-692 (GVAREDPLEPDPLAPIIDDSR; Peptide with targeting and/or antimicrobial activity) | MRSA (R) | – | Mycobacteria spp | – |
| PF-693 (PDPAR; Peptide with targeting and/or antimicrobial activity) | – | S. pneumoniae (A) | Mycobacteria spp | – |
| PF-694 (DLIRPLYSMSAPSVA; Peptide with targeting and/or antimicrobial activity) | MRSA (R) | S. pneumoniae (A) | Mycobacteria spp | – |
| PF-695 (ALSVMLGNIPLVVPNANQL; Peptide with targeting and/or antimicrobial activity) | MRSA (R) | S. pneumoniae (C) | Mycobacteria spp | Organism, effect ([2]; E. faecalis): E. faecalis (R) |
| PF-696 (IRSGISAAYARPLR; Peptide with targeting and/or antimicrobial activity) | – | S. pneumoniae (H) | Mycobacteria spp | – |
| PF-697 (RADARAK; Peptide with targeting and/or antimicrobial activity) | – | S. pneumoniae (H) | Mycobacteria spp | Organism, effect ([2]; C. albicans): C. albicans (H) |
| PF-698 (SSGRAGVKCRRPTGR; Peptide with targeting and/or antimicrobial activity) | – | S. pneumoniae (A) | Mycobacteria spp | Organism, effect ([2]; C. albicans): C. albicans (H); Organism, effect ([2]; E. faecalis): E. faecalis (A) |
| PF-699 (GRAGVKCRRPTGR; Peptide with targeting and/or antimicrobial activity) | – | S. pneumoniae (A) | Mycobacteria spp | – |
| PF-700 (LNWPFTGR; Peptide with targeting and/or antimicrobial activity) | – | S. pneumoniae (C) | Mycobacteria spp | – |
| PF-702 (LSGRLAGRR; Peptide with targeting and/or antimicrobial activity) | – | S. pneumoniae (H) | Mycobacteria spp | – |
| PF-704 (APAARAAL; Peptide with targeting and/or antimicrobial activity) | – | S. pneumoniae (C) | Mycobacteria spp | – |
